Data: patent publication US8362000B2, “Azetidinyl diamides as monoacylglycerol lipase inhibitors” (Janssen Pharmaceutica NV, priority 2009, dated 2013)
Changes are numbered by the printed parent chain. Where two headings read alike, the source gives them in different places.

Experiments:
[1] = molecular target: T1, mutant MGL (Homo sapiens, UniProt Q99685, L169S/L176S); test: MGL ThermoFluor assay - mutant; type: binding; details: read-out: MGL mutant ThermoFluor Kd
T1 sequence (Q99685 1-303 L169S/L176S): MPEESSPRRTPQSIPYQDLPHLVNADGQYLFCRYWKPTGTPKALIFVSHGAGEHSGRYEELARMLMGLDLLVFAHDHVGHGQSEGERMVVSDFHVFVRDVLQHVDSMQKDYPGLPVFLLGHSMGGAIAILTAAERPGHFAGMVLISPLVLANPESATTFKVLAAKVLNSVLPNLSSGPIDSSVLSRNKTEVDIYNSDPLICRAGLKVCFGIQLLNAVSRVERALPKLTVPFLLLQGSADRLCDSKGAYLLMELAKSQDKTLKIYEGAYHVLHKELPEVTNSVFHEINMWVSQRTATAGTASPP

[2] = molecular target: T2, purified wild type MGL (wt-MGLL 6H-11-313) (Homo sapiens, UniProt Q99685)
T2 sequence (Q99685 1-303): T1 sequence (Q99685 1-303 L169S/L176S) with S169L, S176L

[3] = molecular target: T3, MGL (Rattus norvegicus, UniProt Q8R431); test: 2-AG accumulation assay in rat brain homogenate; type: biochemical; details: rat brain homogenate, 2-AG accumulation as percent of vehicle; for 2-AG accumulation, % of vehicle control at 0.01 µM: compound 0.01 μM, read-out: Rat Brain 2AG % VehCntrl (%) @ 0.01 μM; for 2-AG accumulation, % of vehicle control at 0.1 µM: compound 0.1 μM, read-out: Rat Brain 2AG % VehCntrl (%) @ 0.1 μM; for 2-AG accumulation, % of vehicle control at 1 µM: compound 1 μM, read-out: Rat Brain 2AG % VehCntrl (%) @ 1 μM; for 2-AG accumulation, % of vehicle control at 10 µM: compound 10 μM, read-out: Rat Brain 2AG % VehCntrl (%) @ 10 μM
T3 construct: one g rat brain was homogenized using a Polytron homogenizer; from tissue; host or cells: rat brain homogenate
T3 sequence (Q8R431 1-303): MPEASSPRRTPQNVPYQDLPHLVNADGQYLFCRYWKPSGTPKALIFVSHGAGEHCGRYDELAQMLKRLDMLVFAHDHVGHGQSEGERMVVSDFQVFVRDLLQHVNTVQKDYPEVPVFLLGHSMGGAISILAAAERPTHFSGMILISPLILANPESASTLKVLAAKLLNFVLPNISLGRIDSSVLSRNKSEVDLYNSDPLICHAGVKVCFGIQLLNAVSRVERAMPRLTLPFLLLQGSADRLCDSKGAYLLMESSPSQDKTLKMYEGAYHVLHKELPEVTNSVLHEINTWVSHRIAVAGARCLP

[4] = system: CFA-induced paw radiant heat hypersensitivity; test: CFA-induced paw radiant heat hypersensitivity; type: in vivo, rat; details: Rattus norvegicus, po, 30 mg/kg p.o., HPβCD, last time point 180 or 300 min
Procedure: Each rat was placed in a test chamber on a warm glass surface and allowed to acclimate for approximately 10 min. A radiant thermal stimulus (beam of light) was then focused through the glass onto the plantar surface of each hind paw in turn. The thermal stimulus was automatically shut off by a photoelectric relay when the paw was moved or when the cut-off time was reached (20 sec for radiant heat at ˜5 amps). An initial (baseline) response latency to the thermal stimulus was recorded for each animal prior to the injection of complete Freund's adjuvant (CFA). […] Immediately following the post-CFA latency assessment, the indicated test compound or vehicle was administered orally.
The percent reversal (% R) of hypersensitivity was calculated in one of two different ways: 1) using group mean values or 2) using individual animal values. More specifically:
Method 2. For some compounds, the % R of hypersensitivity was calculated separately for each animal according to the following formula: % reversal=[(individual treatment response−individual CFA response)/(individual baseline response−individual CFA response)]×100. Results are given as a mean of the maximum % reversal values calculated for each individual animal.

[5] = ThermoFluor concentration-response
[6] = group mean values, read-out: CFA thermal hypersensitivity Method 1: peak % reversal
[7] = individual animal values, read-out: CFA thermal hypersensitivity Method 2: peak % reversal
[8] = ThermoFluor thermal stability binding assay

`O=C(c1ccccc1)N1CCN(C2CN(C(=O)c3ccc(-c4ccccc4)cc3)C2)CC1` [Cpd 5, 1-[1-(Biphenyl-4-ylcarbonyl)azetidin-3-yl]-4-(phenylcarbonyl)piperazine] showed a Kd [1, 5] of 54.8 nM, an IC50 [2] of 523 nM and a 2-AG accumulation, % of vehicle control at 0.01 µM [3] of 122%. The 2-AG accumulation, % of vehicle control at 0.1 µM [3] was 123%, the 2-AG accumulation, % of vehicle control at 1 µM [3] was 156% and the 2-AG accumulation, % of vehicle control at 10 µM [3] was 279%. It also gave an inhibition in vivo at 30 mg/kg [4, 6] of 96.6% and an inhibition in vivo at 30 mg/kg [4, 7] of 100%.

`O=C(c1ccc(-c2ccccc2)cc1)N1CC(N2CCN(C(=O)c3cscn3)CC2)C1` [Cpd 7, 1-[1-(Biphenyl-4-ylcarbonyl)azetidin-3-yl]-4-(1,3-thiazol-4-ylcarbonyl)piperazine] was tested, and the Kd [1, 5] was 46.6 nM, the IC50 [2] was 131 nM and the 2-AG accumulation, % of vehicle control at 0.1 µM [3] was 216%. It also gave a 2-AG accumulation, % of vehicle control at 1 µM [3] of 238%, a 2-AG accumulation, % of vehicle control at 10 µM [3] of 568% and an inhibition in vivo at 30 mg/kg [4, 6] of 77.8%. It also gave an inhibition in vivo at 30 mg/kg [4, 7] of 76.2%.

`O=C(c1ccc(-c2ccccc2)cc1)N1CC(N2CCN(C(=O)c3nccs3)CC2)C1` [Cpd 9, 1-[1-(Biphenyl-4-ylcarbonyl)azetidin-3-yl]-4-(1,3-thiazol-2-ylcarbonyl)piperazine] showed a Kd [1, 5] of 2.48 nM, an IC50 [2] of 17.4 nM and a 2-AG accumulation, % of vehicle control at 0.01 µM [3] of 99%. The 2-AG accumulation, % of vehicle control at 0.1 µM [3] was 184%, the 2-AG accumulation, % of vehicle control at 1 µM [3] was 529% and the inhibition in vivo at 30 mg/kg [4, 6] was 75.4%. For the same compound, the inhibition in vivo at 30 mg/kg [4, 7] was 77.4%.

`O=C(c1ccccc1)N1CCN(C2CN(C(=O)c3ccc(-c4ccc(Cl)c(Cl)c4)cc3)C2)CC1` [Cpd 39, 1-{1-[(3′,4′-Dichlorobiphenyl-4-yl)carbonyl]azetidin-3-yl}-4-(phenylcarbonyl)piperazine] showed a Kd [1, 5] of 25 nM, an IC50 [2] of 14.7 nM and a 2-AG accumulation, % of vehicle control at 0.1 µM [3] of 173%. The 2-AG accumulation, % of vehicle control at 1 µM [3] was 168%, the 2-AG accumulation, % of vehicle control at 10 µM [3] was 277% and the inhibition in vivo at 30 mg/kg [4, 6] was 39.1%. It also gave an inhibition in vivo at 30 mg/kg [4, 7] of 39.7%.

Work on `O=C(c1ccc(-c2cccc(C(F)(F)F)c2)cc1)N1CC(N2CCN(C(=O)c3cscn3)CC2)C1` [Cpd 229, 1-(1,3-Thiazol-4-ylcarbonyl)-4-(1-{[3′-(trifluoromethyl)biphenyl-4-yl]carbonyl}azetidin-3-yl)piperazine] yielded a Kd [1, 8] of 12.5 nM, an IC50 [2] of less than 5 nM and a 2-AG accumulation, % of vehicle control at 0.1 µM [3] of 276%. The 2-AG accumulation, % of vehicle control at 1 µM [3] was 552%, the inhibition in vivo at 30 mg/kg [4, 6] was 55.8% and the inhibition in vivo at 30 mg/kg [4, 7] was 56.6%.

`O=C(c1ccccc1)N1CCN(C2CN(C(=O)c3ccc(-c4ccc(Cl)c(C(F)(F)F)c4)cc3)C2)CC1` [Cpd 232, 1-(1-{[4′-Chloro-3′-(trifluoromethyl)biphenyl-4-yl]carbonyl}azetidin-3-yl)-4-(phenylcarbonyl)piperazine] showed an IC50 [2] of 82.9 nM, a 2-AG accumulation, % of vehicle control at 1 µM [3] of 152% and a 2-AG accumulation, % of vehicle control at 10 µM [3] of 427%. The inhibition in vivo at 30 mg/kg [4, 6] was 9.6% and the inhibition in vivo at 30 mg/kg [4, 7] was 8%.

`Cc1cc(-c2cccc(C(F)(F)F)c2)ccc1C(=O)N1CC(N2CCN(C(=O)c3nccs3)CC2)C1` [Cpd 239, 1-(1-{[3-Methyl-3′-(trifluoromethyl)biphenyl-4-yl]carbonyl}azetidin-3-yl)-4-(1,3-thiazol-2-ylcarbonyl)piperazine] was tested, and the Kd [1, 8] was 5 nM, the IC50 [2] was 10 nM and the 2-AG accumulation, % of vehicle control at 0.01 µM [3] was 153%. The 2-AG accumulation, % of vehicle control at 0.1 µM [3] was 290%, the inhibition in vivo at 30 mg/kg [4, 6] was 81.8% and the inhibition in vivo at 30 mg/kg [4, 7] was 87.5%.

`Cc1cc(-c2cccc(C(F)(F)F)c2)ccc1C(=O)N1CC(N2CCN(C(=O)c3cscn3)CC2)C1` [Cpd 240, 1-(1-{[3-Methyl-3′-(trifluoromethyl)biphenyl-4-yl]carbonyl}azetidin-3-yl)-4-(1,3-thiazol-4-ylcarbonyl)piperazine] was tested, and the Kd [1, 8] was 23.2 nM, the IC50 [2] was 50.8 nM and the 2-AG accumulation, % of vehicle control at 0.1 µM [3] was 184%. It also gave a 2-AG accumulation, % of vehicle control at 1 µM [3] of 538%, a 2-AG accumulation, % of vehicle control at 10 µM [3] of 639% and an inhibition in vivo at 30 mg/kg [4, 6] of 43%. The inhibition in vivo at 30 mg/kg [4, 7] was 44.4%.

For `O=C(c1nccs1)N1CCN(C2CN(C(=O)c3ccc(-c4cccc(C(F)(F)F)c4)cc3Cl)C2)CC1` [Cpd 250, 1-(1-{[3-Chloro-3′-(trifluoromethyl)biphenyl-4-yl]carbonyl}azetidin-3-yl)-4-(1,3-thiazol-2-ylcarbonyl)piperazine], the Kd [1, 8] was 1.7 nM, the IC50 [2] was less than 5 nM and the 2-AG accumulation, % of vehicle control at 0.01 µM [3] was 180%. For the same compound, the 2-AG accumulation, % of vehicle control at 0.1 µM [3] was 472%, the inhibition in vivo at 30 mg/kg [4, 6] was 41.7% and the inhibition in vivo at 30 mg/kg [4, 7] was 41.9%.

In the case of `O=C(c1cscn1)N1CCN(C2CN(C(=O)c3ccc(-c4cccc(C(F)(F)F)c4)cc3Cl)C2)CC1` [Cpd 251, 1-(1-{[3-Chloro-3′-(trifluoromethyl)biphenyl-4-yl]carbonyl}azetidin-3-yl)-4-(1,3-thiazol-4-ylcarbonyl)piperazine], the Kd [1, 8] is reported as 14.3 nM, the IC50 [2] is reported as 17 nM and the 2-AG accumulation, % of vehicle control at 0.1 µM [3] is reported as 144%. For the same compound, the 2-AG accumulation, % of vehicle control at 1 µM [3] was 586%, the 2-AG accumulation, % of vehicle control at 10 µM [3] was 791% and the inhibition in vivo at 30 mg/kg [4, 6] was 35.1%. It also gave an inhibition in vivo at 30 mg/kg [4, 7] of 38.5%.

Work on `Cc1cc(-c2ccc(F)c(Cl)c2)ccc1C(=O)N1CC(N2CCN(C(=O)c3cscn3)CC2)C1` [Cpd 253, 1-{1-[(3′-Chloro-4′-fluoro-3-methylbiphenyl-4-yl)carbonyl]azetidin-3-yl}-4-(1,3-thiazol-4-ylcarbonyl)piperazine] yielded a Kd [1, 8] of 21.5 nM, an IC50 [2] of 49.4 nM and a 2-AG accumulation, % of vehicle control at 0.1 µM [3] of 107%. For the same compound, the 2-AG accumulation, % of vehicle control at 1 µM [3] was 319%, the 2-AG accumulation, % of vehicle control at 10 µM [3] was 624% and the inhibition in vivo at 30 mg/kg [4, 6] was 64.3%. The inhibition in vivo at 30 mg/kg [4, 7] was 87.2%.

For `COc1cc(C(=O)N2CC(N3CCN(C(=O)c4cscn4)CC3)C2)ccc1-c1ccc(F)c(Cl)c1` [Cpd 261, 1-{1-[(3′-Chloro-4′-fluoro-2-methoxybiphenyl-4-yl)carbonyl]azetidin-3-yl}-4-(1,3-thiazol-4-ylcarbonyl)piperazine], the Kd [1, 8] was 9.1 nM, the IC50 [2] was 8.4 nM and the 2-AG accumulation, % of vehicle control at 0.1 µM [3] was 148%. It also gave a 2-AG accumulation, % of vehicle control at 1 µM [3] of 525%, a 2-AG accumulation, % of vehicle control at 10 µM [3] of 856% and an inhibition in vivo at 30 mg/kg [4, 6] of 26.4%. It also gave an inhibition in vivo at 30 mg/kg [4, 7] of 27.5%.

`O=C(c1cscn1)N1CCN(C2CN(C(=O)c3ccc(-c4ccc(Cl)c(C(F)(F)F)c4)cc3Cl)C2)CC1` [Cpd 266, 1-(1-{[3,4′-Dichloro-3′-(trifluoromethyl)biphenyl-4-yl]carbonyl}azetidin-3-yl)-4-(1,3-thiazol-4-ylcarbonyl)piperazine] gave a Kd [1, 8] of 16 nM, an IC50 [2] of 49.8 nM and a 2-AG accumulation, % of vehicle control at 1 µM [3] of 395%. For the same compound, the inhibition in vivo at 30 mg/kg [4, 6] was 50.5% and the inhibition in vivo at 30 mg/kg [4, 7] was 56.1%.

`O=C(c1nccs1)N1CCN(C2CN(C(=O)c3sc4c(F)c(C(F)(F)F)ccc4c3Cl)C2)CC1` [Cpd 650] gave an IC50 [2] of 6 nM, a 2-AG accumulation, % of vehicle control at 1 µM [3] of 960% and an inhibition in vivo at 30 mg/kg [4, 6] of 29.9%.
